Among the data in patent publication US10947241B2, “Phenyl phthalazine derivative, method for the preparation thereof, and pharmaceutical composition comprising the same” (Seoul National University Hospital, priority 2016, dated 2021) are IC50 and inhibition values, retold here.

This test concerns the target hResistin (Homo sapiens (Human), UniProt Q9HD89). The test is described as follows: Evaluation of the ability to inhibit TNF-α secretion by hResistin (THP-1 cells, ELISA). Conditions: for IC50: THP-1 human monocyte cell line, human recombinant Resistin; for inhibition at 5 µM: inhibition of TNF-α secretion by hResistin in THP-1 cells. It counts as cell-based. How it is done: Experimental Example: Evaluation of the Ability to Inhibit TNF-α Secretion by hResistin
Using THP-1 (human monocyte) cell line and ELISA system, the abilities to inhibit TNF-α secretion by hResistin (IC50) were evaluated for the compounds prepared in the above examples. The compounds target hResistin, and the abilities of the compounds to inhibit TNF-α secretion by human recombinant Resistin in human monocyte (THP-1) were evaluated. The abilities to inhibit TNF-α secretion were assessed by ELISA quantifying the amount of antibody with the enzyme as a marker using an antigen-antibody reaction.
Specifically, the cultured cells were spun down at 1,500 rpm for 2 minutes, the supernatant was removed and then the cells were re-suspended in 10 mL of complete RPMI-1640 medium. After counting the number of cells using Luna™ Automated Cell Counter, cells were plated into 96-well assay plates at 50 μL per well. The cells cultured for 24 hours were treated with the test substances in accordance with the concentration for 1 hour, and then the supernatant was collected and subjected to ELISA assay. In the ELISA assay, the absorbance at 450 nm (OD450 nm) was measured using Flexstation 3. The ability of each test substance to inhibit TNF-α secretion (IC50) and its inhibition at a concentration of 5 uM are shown in Table 1 below.
A general note: An ELISA detects its analyte on a solid surface through an enzyme-linked reagent.

Structures can show the parent of a compound that is named as a salt.

Chain of hResistin (Q9HD89 19-108): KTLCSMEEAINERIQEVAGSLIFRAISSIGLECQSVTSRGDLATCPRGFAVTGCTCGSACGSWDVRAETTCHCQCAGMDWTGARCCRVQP

Take `OCCN1CCN(c2nnc(-c3ccccc3)c3ccccc23)CC1` [Example 1, 2-(4-(4-phenylphthalazin-1-yl)piperazin-1-yl)ethanol]: the half-maximal inhibitory concentration (IC50) was found to be 1000 nM.

Regarding `CC(=O)N1CCN(c2nnc(-c3ccc(C)cc3)c3ccccc23)CC1` [Example 2, 1-(4-(4-p-tolylphthalazin-1-yl)piperazin-1-yl)ethanone], the IC50 was 5000 nM. As to `OCCC1CCN(c2nnc(-c3ccc(Cl)cc3)c3ccccc23)CC1` [Example 4, 2-(1-(4-(4-chlorophenyl)phthalazin-1-yl)piperidin-4-yl)ethanol], the inhibition at 5 µM was 40.4% and the IC50 turned out to be 1600 nM.

In turn, `Clc1ccc(-c2nnc(N3CCC(N4CCOCC4)CC3)c3ccccc23)cc1` [Example 8, 4-(1-(4-(4-chlorophenyl)phthalazin-1-yl)piperidin-4-yl)morpholine] gave an inhibition at 5 µM of 54.4%. With `COCCN1CCN(c2nnc(-c3ccc(Cl)cc3)c3ccccc23)CC1` [Example 9, 1-(4-chlorophenyl)-4-(4-(2-methoxyethyl)piperazin-1-yl)phthalazine], the IC50 amounted to 3700 nM.

Take `O=C(C1CC1)N1CCN(c2nnc(-c3ccc(Cl)cc3)c3ccccc23)CC1` [Example 10, (4-(4-(4-chlorophenyl)phthalazin-1-yl)piperazin-1-yl)(cyclopropyl)methanone]: the half-maximal inhibitory concentration (IC50) stood at 1200 nM. Take `O=S(=O)(C1CCCC1)N1CCN(c2nnc(-c3ccc(Cl)cc3)c3ccccc23)CC1` [Example 34, 1-(4-chlorophenyl)-4-(4-(cyclopentylsulfonyl)piperazin-1-yl)phthalazine]: the inhibition at 5 µM came to 64.9% and the IC50 was 3000 nM. Consider `C[C@@H](N)C(=O)N1CCN(c2nnc(-c3ccc(Cl)cc3)c3ccccc23)CC1` [Example 36, (R)-2-amino-1-(4-(4-(4-chlorophenyl)phthalazin-1-yl)piperazin-1-yl)propan-1-one hydrochloride], for which the inhibition at 5 µM came out at 75.8% and the IC50 was determined as 2500 nM. With `O=S(=O)(C1CC1)N1CCN(c2nnc(-c3ccc(Cl)cc3)c3ccccc23)CC1` [Example 37, 1-(4-chlorophenyl)-4-(4-(cyclopropylsulfonyl)piperazin-1-yl)phthalazine], the inhibition at 5 µM amounted to 52.9%.

Take `NCCN1CCN(c2nnc(-c3ccc(Cl)cc3)c3ccccc23)CC1` [Example 38, 2-(4-(4-(4-chlorophenyl)phthalazin-1-yl)piperazin-1-yl)ethanamine hydrochloride]: at 5 µM the inhibition was 69.5% and the IC50 was determined as 7900 nM. As for `CC(C)(N)C(=O)N1CCN(c2nnc(-c3ccc(Cl)cc3)c3ccccc23)CC1` [Example 43, 2-amino-1-(4-(4-(4-chlorophenyl)phthalazin-1-yl)piperazin-1-yl)-2-methyl propan-1-one hydrochloride], 5 µM produced 84.4% inhibition and the IC50 came out at 1300 nM. Take `CC(C)(N)C(=O)N1CC=C(c2nnc(-c3ccc(Cl)cc3)c3ccccc23)CC1` [Example 44, 2-amino-1-(4-(4-(4-chlorophenyl)phthalazin-1-yl)-5,6-dihydropyridin-1(2H)-yl)-2-methylpropan-1-one hydrochloride]: the inhibition at 5 µM stood at 50.5%.

With `CC(=O)NC1CCN(c2nnc(-c3ccc(Cl)cc3)c3ccccc23)C1` (stereo not drawn) [Example 45, N-(1-(4-(4-chlorophenyl)phthalazin-1-yl)pyrrolidin-3-yl)acetamide], the inhibition at 5 µM amounted to 77.6% and the IC50 stood at 1600 nM. In the same order, the values of `CNC1CCN(c2nnc(-c3ccc(Cl)cc3)c3ccccc23)C1` (stereo not drawn) [Example 46, 1-(4-(4-chlorophenyl)phthalazin-1-yl)-N-methylpyrrolidin-3-amine hydrochloride] are 97.8% and 300 nM. In the case of `CC(C)[C@H](N)C(=O)N1CCN(c2nnc(-c3ccc(Cl)cc3)c3ccccc23)CC1` [Example 47, (S)-2-amino-1-(4-(4-(4-chlorophenyl)phthalazin-1-yl)piperazin-1-yl)-3-methylbutan-1-one hydrochloride], the inhibition at 5 µM came to 87.1% and the IC50 is 700 nM. `Clc1ccc(-c2nnc(N3CCN(CC4CC4)CC3)c3ccccc23)cc1` [Example 50, 1-(4-chlorophenyl)-4-(4-(cyclopropylmethyl)piperazin-1-yl)phthalazine] returned an inhibition at 5 µM of 54%. With `O=C([C@H]1CCCN1)N1CCN(c2nnc(-c3ccc(Cl)cc3)c3ccccc23)CC1` [Example 51, (R)-(4-(4-(4-chlorophenyl)phthalazin-1-yl)piperazin-1-yl)(pyrrolidin-2-yl)methanone hydrochloride], 5 µM produced 88.2% inhibition and the IC50 is 800 nM.

The molecule `CNCCN(C)c1nnc(-c2ccc(Cl)cc2)c2ccccc12` [Example 53, N1-(4-(4-chlorophenyl)phthalazin-1-yl)-N1,N2-dimethylethane-1,2-diamine] displayed an inhibition at 5 µM of 8.7%. For the molecule `CCNC1CCN(c2nnc(-c3ccc(Cl)cc3)c3ccccc23)C1` (stereo not drawn) [Example 54, 1-(4-(4-chlorophenyl)phthalazin-1-yl)-N-ethylpyrrolidin-3-amine hydrochloride], testing at 5 µM gave an inhibition of 70% and the concentration for half-maximal inhibition (IC50) was 1900 nM.

Molecule `CNCCCN(C)c1nnc(-c2ccc(Cl)cc2)c2ccccc12` [Example 55, N1-(4-(4-chlorophenyl)phthalazin-1-yl)-N1,N3-dimethylpropane-1,3-diamine hydrochloride] displayed an inhibition at 5 µM of 13.1%. Same read-out and setting: the result for `O=C(C1CC1)N1CCC(c2nnc(-c3ccc(Cl)cc3)c3ccccc23)CC1` [Example 56, (4-(4-(4-chlorophenyl)phthalazin-1-yl)piperidin-1-yl)(cyclopropyl)methanone] reads 26.2%. In the case of `CN[C@@H]1CCCN(c2nnc(-c3ccc(Cl)cc3)c3ccccc23)C1` [Example 57, (R)-1-(4-(4-chlorophenyl)phthalazin-1-yl)-N-methylpiperidin-3-amine hydrochloride], testing at 5 µM gave an inhibition of 92.8% and the IC50 is 1000 nM. Regarding `NC1(C(=O)N2CCN(c3nnc(-c4ccc(Cl)cc4)c4ccccc34)CC2)CCCC1` [Example 58, (1-aminocyclopentyl)(4-(4-(4-chlorophenyl)phthalazin-1-yl)piperazin-1-yl)methanone hydrochloride], the inhibition at 5 µM was determined as 77.3% and the IC50 was determined as 2900 nM. For the molecule `O=C([C@@H]1CCCN1)N1CCN(c2nnc(-c3ccc(Cl)cc3)c3ccccc23)CC1` [Example 59, (S)-(4-(4-(4-chlorophenyl)phthalazin-1-yl)piperazin-1-yl)(pyrrolidin-2-yl)methanone hydrochloride], the inhibition at 5 µM came out at 60.3%. With `CC[C@H](C)[C@H](N)C(=O)N1CCN(c2nnc(-c3ccc(Cl)cc3)c3ccccc23)CC1` [Example 60, (2S,3S)-2-amino-1-(4-(4-(4-chlorophenyl)phthalazin-1-yl)piperazin-1-yl)-3-methylpentan-1-one hydrochloride], the inhibition at 5 µM came out at 91.2% and the IC50 was 1900 nM. The molecule `CC(C)[C@H](N)C(=O)N1CCC(c2nnc(-c3ccc(Cl)cc3)c3ccccc23)CC1` [Example 61, (S)-2-amino-1-(4-(4-(4-chlorophenyl)phthalazin-1-yl)piperidin-1-yl)-3-methylbutan-1-one hydrochloride] had an inhibition at 5 µM of 21.2%.

One may read the IC50 as the point on the concentration scale where inhibition reaches its midpoint. As usually defined, the inhibition is the relative decrease from the control value, in per cent. A low value points to little suppression.
